Source: US20260042734A1, “HETEROCYCLIC RING-SUBSTITUTED AROMATIC COMPOUND, PREPARATION METHOD THEREFOR, AND USE THEREOF” (SHANGHAI HENLIUS BIOTECH, INC., priority 2023, published 2026)

molecular target: human Kv1.3 (hKv1.3) channels (Homo sapiens (Human), UniProt P22001); test: Electrophysiological (whole-cell patch clamp) determination of inhibitory activity on Kv1.3 channels; type: cell-based; settings: HEK293T cells expressing hKv1.3; Hill fit of peak current inhibition
Experimental: Test Example 1: Determination of Inhibitory Activity of Compounds on Kv1.3 (hKv1.3) Channels
Electrophysiological Testing
Potassium currents were measured using HEK293T cells expressing human Kv1.3 (hKv1.3) channels.
Prior to the start of electrophysiological experiments, Kv1.3 cell lines should be maintained within 70% of the maximum density in the logarithmic growth phase. All reagents should be pre-warmed to 37° C. before use. • 1) Aspirate the spent medium from the 6 cm culture dish. • 2) Add 1 mL of PBS, gently rock the dish to rinse the bottom, and then remove the PBS. • 3) Add 1 mL of trypsin, and gently rock the dish to ensure the trypsin covers all the cells. • 4) Incubate at 37° C. for 2-3 minutes, and then gently pipette the cells to suspend the adherent cells. • 5) Transfer the cell suspension to a new centrifuge tube and centrifuge at 1000 rpm for 5 minutes. Adjust the cell concentration to 2×10^3 cells/mL, and then seed 300 μL of the cell suspension into each well of a 24-well plate containing cell climbing slides. Perform patch clamp experiments after the cells adhered properly.
The intracellular and extracellular solutions used were designed to mimic the cell physiological ionic composition.
Kv1.3 extracellular solution: 137 mM NaCl, 1 mM MgCl2·6H2O, 4 mM KCl, 1.8 mM CaCl2·2H2O, 10 mM D-Glucose, 10 mM HEPES, pH adjusted to 7.4 with NaOH.
Kv1.3 intracellular solution: 140 mM KCl, 10 mM EGTA, 5 mM MgCl2·6H2O, 10 mM HEPES, […], pH adjusted to 7.2 with KOH.
Test Compound Dissolution
• 1) The test compound was dissolved in DMSO to prepare a 30 mM stock solution. • 2) The stock solution of the test compound was serially diluted with DMSO to obtain secondary stock solutions at concentrations of 300 μM, 100 μM, 30 μM, 10 μM, and 3 μM. • 3) 10 μL of each secondary stock solution was diluted into 10 mL of extracellular solution to achieve final concentrations of 300 nM, 100 nM, 30 nM, 10 nM, and 3 nM for electrophysiological testing.
Kv1.3 potassium current data were collected and stored on a computer using Patchmaster software via an EPC-10 amplifier. • 1) The cell climbing slide was removed from the cell culture dish using forceps, immersed with extracellular solution, and placed into the bath chamber on the stage of an inverted microscope. • 2) Glass micropipettes were pulled using a P-1000 micropipette puller, filled one-third of their volume with intracellular solution, and then mounted onto an electrode holder. • 3) Using a motorized micromanipulator (Scientifica-Double 1U), the recording electrode was brought into contact with the cell surface. […] The positive pressure was removed, and a negative pressure of 0.5 cm H2O was applied. It was observed that the sealing resistance increased rapidly until it reached the gigaseal. When the sealing resistance between the recording electrode and the cell membrane was >1 GΩ, negative pressure was applied to rupture the membrane to form the whole-cell recording mode. After the ruptured membrane stabilized, the membrane capacitance (Cs) and series resistance (Rs) were compensated. • 4) Stimulation procedure: the cell was voltage-clamped at −80 mV, depolarized to 40 mV for a duration of 200 ms, and then repolarized to −80 mV. Currents were recorded every 10 s. • 5) Kv1.3 potassium channel currents were recorded at room temperature prior to drug application. After the control current value reached a steady state (indicated by overlapping of the four most consecutive current traces), cumulative drug application was performed. The negative control (0.1% DMSO) was applied first, followed by […] of the drugs.
Raw Kv1.3 current peak data were extracted from PatchMaster software. The current inhibition rate was calculated as follows: Peak current inhibition rate=((1−(Peak current compound)/(Peak current vehicle))). […]

Sequence of human Kv1.3 (hKv1.3) channels (P22001 whole entry): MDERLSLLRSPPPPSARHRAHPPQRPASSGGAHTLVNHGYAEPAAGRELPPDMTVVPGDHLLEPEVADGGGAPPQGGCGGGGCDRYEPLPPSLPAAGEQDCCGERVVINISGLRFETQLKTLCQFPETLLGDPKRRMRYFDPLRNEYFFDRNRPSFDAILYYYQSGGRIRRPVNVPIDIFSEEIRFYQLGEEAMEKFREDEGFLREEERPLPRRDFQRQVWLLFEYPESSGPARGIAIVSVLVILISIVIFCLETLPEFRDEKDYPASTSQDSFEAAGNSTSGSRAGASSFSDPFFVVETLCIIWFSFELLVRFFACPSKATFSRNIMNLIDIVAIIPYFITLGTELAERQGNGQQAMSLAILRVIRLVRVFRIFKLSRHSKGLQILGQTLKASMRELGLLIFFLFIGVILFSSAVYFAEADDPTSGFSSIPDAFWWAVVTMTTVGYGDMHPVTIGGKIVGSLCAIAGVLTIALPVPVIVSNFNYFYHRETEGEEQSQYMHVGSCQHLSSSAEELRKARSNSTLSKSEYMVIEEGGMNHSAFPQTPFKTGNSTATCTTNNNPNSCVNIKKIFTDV

| IC50 | Compound |
| --- | --- |
| 5 to 10 nM | OCCCN1C[C@H](c2c(O)ccc(Cl)c2Cl)CC1=S [Compound 1-1, (S)-4-(2,3-Dichloro-6-hydroxyphenyl)-1-(3-hydroxypropyl)pyrrolidine-2-thione] |
| 10 to 30 nM | OCC(F)(F)CN1C[C@H](c2c(O)ccc(Cl)c2Cl)CC1=S [Compound 121-1, (S)-4-(2,3-Dichloro-6-hydroxyphenyl)-1-(2,2-difluoro-3-hydroxypropyl)pyrrolidine-2-thione] |
| 5 to 10 nM | Oc1ccc(Cl)c(Cl)c1[C@@H]1CC(=S)N([C@H]2C[C@H](O)C2)C1 [Compound 124-1, (S)-4-(2,3-Dichloro-6-hydroxyphenyl)-1-((1r,3r)-3-hydroxycyclobutyl)pyrrolidine-2-thione] |
| ≤ 5 nM | Oc1ccc(Cl)c(Cl)c1[C@@H]1CC(=S)N(C[C@H]2C[C@H](O)C2)C1 [Compound 129-1, (S)-4-(2,3-Dichloro-6-hydroxyphenyl)-1-(((1r,3r)-3-hydroxycyclobutyl)methyl)pyrrolidine-2-thione] |
| ≤ 5 nM | OCCCCN1C[C@H](c2c(O)ccc(Cl)c2Cl)CC1=S [Compound 130-1, (S)-4-(2,3-Dichloro-6-hydroxyphenyl)-1-(4-hydroxybutyl)pyrrolidine-2-thione] |
| 5 to 10 nM | Oc1ccc(Cl)c(Cl)c1[C@@H]1CC(=S)N(c2cnn3c2CCC3)C1 [Compound 159-1, (S)-4-(2,3-Dichloro-6-hydroxyphenyl)-1-(5,6-dihydro-4H-pyrrolo[1,2-b]pyrazol-3-yl)pyrrolidine-2-thione] |
| 10 to 30 nM | O=C1C[C@@H](c2c(O)ccc(Cl)c2Cl)CN1CCCO [Compound W1, reference compound] |
| 10 to 30 nM | NCCCN1C[C@H](c2c(O)ccc(Cl)c2Cl)CC1=O [Compound W2, reference compound] |
| ≤ 5 nM | (S)-4-(2,3-Dichloro-6-hydroxyphenyl)-1-(1- methyl-1H-pyrazol-4-yl)pyrrolidine-2- thione [Compound 40-1] |

same assay, conditions: HEK-293T; compound concentration 10 nM; HEK293T cells expressing hKv1.3; peak current inhibition; read-out: 10 nM inhibition rate (Kv1.3)

| inhibition at 0.01 µM | Compound |
| --- | --- |
| 0 to 5% | COc1ccc(N2CC(c3c(O)ccc(Cl)c3Cl)CC2=S)cn1 (racemic) [Compound 165, rac-4-(2,3-dichloro-6-hydroxyphenyl)-1-(6-methoxypyridin-3-yl)pyrrolidine-2-thione] |
| 0 to 5% | COc1cc(N2CC(c3c(O)ccc(Cl)c3Cl)CC2=S)ccn1 (racemic) [Compound 166, rac-4-(2,3-dichloro-6-hydroxyphenyl)-1-(2-methoxypyridin-4-yl)pyrrolidine-2-thione] |
| 0 to 5% | Cc1cc(N2CC(c3c(O)ccc(Cl)c3Cl)CC2=S)ccn1 (racemic) [Compound 167, rac-4-(2,3-dichloro-6-hydroxyphenyl)-1-(2-methylpyridin-4-yl)pyrrolidine-2-thione] |
| < 0% | O=C1N(CCCO)CC(c2c(O)ccc(Cl)c2Cl)C1(F)F (racemic) [Compound 168, rac-4-(2,3-dichloro-6-hydroxyphenyl)-3,3-difluoro-1-(3-hydroxypropyl)pyrrolidin-2-one] |
| < 0% | O=C1N(CCCO)CC(c2c(O)ccc(Cl)c2Cl)C12CC2 (racemic) [Compound 169, rac-7-(2,3-dichloro-6-hydroxyphenyl)-5-(3-hydroxypropyl)-5-azaspiro[2.4]heptan-4-one] |
| < 0% | Cn1cncc1N1CC(c2c(O)ccc(Cl)c2Cl)CC1=S (stereo not shown) [Compound 42, 4-(2,3-Dichloro-6-hydroxyphenyl)-1-(1-methyl-1H-imidazol-5-yl)pyrrolidine-2-thione] |
| 0 to 5% | Cc1ncc(N2CC(c3c(O)ccc(Cl)c3Cl)CC2=S)s1 (stereo not shown) [Compound 43, 4-(2,3-Dichloro-6-hydroxyphenyl)-1-(2-methylthiazol-5-yl)pyrrolidine-2-thione] |
| 0 to 5% | CS(=O)(=O)NCCCN1CC(c2c(O)ccc(Cl)c2Cl)CC1=O (stereo not shown) [Compound 76, N-(3-(4-(2,3-Dichloro-6-hydroxyphenyl)-2-oxopyrrolidin-1-yl)propyl)methanesulfonamide] |
| 0 to 5% | NS(=O)(=O)CCN1CC(c2c(O)ccc(Cl)c2Cl)CC1=O (stereo not shown) [Compound 77, 2-(4-(2,3-Dichloro-6-hydroxyphenyl)-2-oxopyrrolidin-1-yl)ethane-1-sulfonamide] |
| 0 to 5% | CS(=N)(=O)CCN1CC(c2c(O)ccc(Cl)c2Cl)CC1=O (stereo not shown) [Compound 78, 4-(2,3-Dichloro-6-hydroxyphenyl)-1-(2-(S-methylsulfonylimino)ethyl) pyrrolidin-2-one] |
| < 0% | CS(=O)(=O)CCN1CC(c2c(O)ccc(Cl)c2Cl)CC1=O (stereo not shown) [Compound 79, 4-(2,3-Dichloro-6-hydroxyphenyl)-1-(2-(methylsulfonyl)ethyl)pyrrolidin-2-one] |
| 50 to 75% | C=Cn1cc(N2CC(c3c(O)ccc(Cl)c3Cl)CC2=O)cn1 (stereo not shown) [Compound 90, 4-(2,3-Dichloro-6-hydroxyphenyl)-1-(1-vinyl-1H-pyrazol-4-yl)pyrrolidin-2-one] |
| ≥ 75% | O=C1CC(c2c(O)ccc(Cl)c2Cl)CN1C1CC2(CNC2)C1 (stereo not shown) [Compound 100, 4-(2,3-Dichloro-6-hydroxyphenyl)-1-(2-azaspiro[3.3]heptan-6-yl)pyrrolidin-2-one] |
| 50 to 75% | NC1CC2(C1)CC(N1CC(c3c(O)ccc(Cl)c3Cl)CC1=O)C2 (stereo not shown) [Compound 101, 1-(6-Aminospiro[3.3]heptan-2-yl)-4-(2,3-dichloro-6-hydroxyphenyl) pyrrolidin-2-one] |
| 0 to 5% | CONCCCN1CC(c2c(O)ccc(Cl)c2Cl)CC1=O (stereo not shown) [Compound 104, 4-(2,3-Dichloro-6-hydroxyphenyl)-1-(3-(methoxyamino)propyl)pyrrolidin-2-one] |
| < 0% | CON(C)CCCN1CC(c2c(O)ccc(Cl)c2Cl)CC1=O (stereo not shown) [Compound 105, 4-(2,3-Dichloro-6-hydroxyphenyl)-1-(3-(methoxy(methyl)amino)propyl) pyrrolidin-2-one] |
| < 0% | NC(=S)CCN1CC(c2c(O)ccc(Cl)c2Cl)CC1=O (stereo not shown) [Compound 113, 3-(4-(2,3-Dichloro-6-hydroxyphenyl)-2-oxopyrrolidin-1-yl)propanethioamide] |
| 0 to 5% | N=C(N)CCN1CC(c2c(O)ccc(Cl)c2Cl)CC1=O (stereo not shown) [Compound 114, 3-(4-(2,3-Dichloro-6-hydroxyphenyl)-2-oxopyrrolidin-1-yl)propionimide] |
| 25 to 50% | O=C(CCN1CC(c2c(O)ccc(Cl)c2Cl)CC1=O)NO (stereo not shown) [Compound 115, 3-(4-(2,3-Dichloro-6-hydroxyphenyl)-2-oxopyrrolidin-1-yl)-N-hydroxypropionamide] |
| < 0% | CN(O)C(=O)CCN1CC(c2c(O)ccc(Cl)c2Cl)CC1=O (stereo not shown) [Compound 116, 3-(4-(2,3-Dichloro-6-hydroxyphenyl)-2-oxopyrrolidin-1-yl)-N-hydroxy-N-methylpropionamide] |
| 0 to 5% | CONC(=O)CCN1CC(c2c(O)ccc(Cl)c2Cl)CC1=O (stereo not shown) [Compound 117, 3-(4-(2,3-Dichloro-6-hydroxyphenyl)-2-oxopyrrolidin-1-yl)-N-methoxypropionamide] |
| 25 to 50% | O=C1CC(c2c(O)ccc(Cl)c2Cl)CN1CCNO (stereo not shown) [Compound 118, 4-(2,3-Dichloro-6-hydroxyphenyl)-1-(2-(hydroxyamino)ethyl)pyrrolidin-2-one] |
| 0 to 5% | NOCCN1CC(c2c(O)ccc(Cl)c2Cl)CC1=O (stereo not shown) [Compound 119, 1-(2-(Aminooxy)ethyl)-4-(2,3-dichloro-6-hydroxyphenyl)pyrrolidin-2-one] |
| < 0% | NOCCCN1CC(c2c(O)ccc(Cl)c2Cl)CC1=O (stereo not shown) [Compound 120, 1-(3-(Aminooxy)propyl)-4-(2,3-dichloro-6-hydroxyphenyl)pyrrolidin-2-one] |
| 25 to 50% | O=C1C[C@@H](c2c(O)ccc(Cl)c2Cl)CN1CCCO [Compound W1, reference compound] |
